Data as given in patent publication US20040219512A1, “Screening methods for cataractogenic risk” (Pfizer Inc, priority 2003, published 2004).

How the values were obtained:
[1] = system: chloride channels on the lens; settings: literature, Zhang, J. J. (1994); cited from earlier work
Rodent lens explants = system: Rodent lens explants
Procedure: Rodent lenses were surgically removed and placed in tissue culture 199 (TC199) media (Invitrogen) supplemented with bicarbonate buffer with and without 10 mM TEA (Sigma Aldrich Co.). Darkfield photomicrographs of the cells were taken over a seven day period.

SRA 01/04 cells = settings: concentrations of TEA greater than five mM
Source text: Preparation of Lens Epithelial Cell Line Culture Cells from the cell line, SRA 01/04 (deposited in the National Institute of Bioscience and Human-Technology Agency of Industrial Science and Technology, Ibaraki, Japan, international deposit No. FERM BP-5454) were thawed and plated on the bottom of a 25 square centimeter tissue culture flask (Falcon™ Flask, BD Biosciences, Lincoln Park, N.J.) and grown in high-glucose DMEM supplemented with 15% of FBS (Invitrogen, Grand Island, N.Y.) and 1% of penicillin/streptomysin (Invitrogen) at 37° C. in 5% CO2 and 95% air environment. The medium was changed twice a week. When confluence of 90-100% was reached (about 7-14 days), the medium was removed from the culture flask and the cells on the bottoms were washed with one ml of trypsin-EDTA (0.05% trypsin and EDTA, Invitrogen). […]
Approximately 15 μl of the cell suspension was pipetted onto a glass coverslip (Warner Instruments, Hamden, Conn., USA) placed on the transparent bottoms of a recording chamber mounted on an inverted differential interference contrast microscope (Eclipse TE300, Nikon, Tokyo, Japan). Whole cell currents were measured under the whole-cell configuration at room temperature (24-26° C.) using a multiclamp 700A dual channel multi-purpose microelectrode amplifier (Axon Instruments, Foster City, Calif., USA). […]

CC/C(=C(\c1ccccc1)c1ccc(OCCN(C)C)cc1)c1ccccc1 [tamoxifen]
effect on chloride channels on the lens [1]: blocks chloride channels on the lens

CC[N+](CC)(CC)CC [TEA, tetraethylammonium]
clouding of the lens compared with control (Rodent lens explants; 10 mM TEA in TC199 media, photomicrographs over seven days): increased clouding of the lens | pixel intensity histogram of lens explants (Rodent lens explants; 10 mM TEA, imaged after five days in culture): rightward shift in the intensity histogram | additional current block at higher concentration (SRA 01/04 cells): no significant additional current block
